Assay results taken from patent publication US20260176249A1, “PROTEIN KINASE INHIBITOR, PREPARATION METHOD THEREFOR, AND APPLICATION THEREOF” (SHANDONG LUYE PHARMACEUTICAL CO., LTD., priority 2021, published 2026).
Where two headings read alike, the source gives them in different places.

Columns and labels:
[1] = molecular target: T1, PLK1 kinase (Homo sapiens, UniProt P53350); assay: Inhibitory activity on PLK1 kinase; assay type: biochemical; settings: for Imax: maximum effect caused by the compound at the test concentration
T1 construct: purchased Carnabio (Carna Biosciences) 05-157
T1 sequence (P53350 whole entry): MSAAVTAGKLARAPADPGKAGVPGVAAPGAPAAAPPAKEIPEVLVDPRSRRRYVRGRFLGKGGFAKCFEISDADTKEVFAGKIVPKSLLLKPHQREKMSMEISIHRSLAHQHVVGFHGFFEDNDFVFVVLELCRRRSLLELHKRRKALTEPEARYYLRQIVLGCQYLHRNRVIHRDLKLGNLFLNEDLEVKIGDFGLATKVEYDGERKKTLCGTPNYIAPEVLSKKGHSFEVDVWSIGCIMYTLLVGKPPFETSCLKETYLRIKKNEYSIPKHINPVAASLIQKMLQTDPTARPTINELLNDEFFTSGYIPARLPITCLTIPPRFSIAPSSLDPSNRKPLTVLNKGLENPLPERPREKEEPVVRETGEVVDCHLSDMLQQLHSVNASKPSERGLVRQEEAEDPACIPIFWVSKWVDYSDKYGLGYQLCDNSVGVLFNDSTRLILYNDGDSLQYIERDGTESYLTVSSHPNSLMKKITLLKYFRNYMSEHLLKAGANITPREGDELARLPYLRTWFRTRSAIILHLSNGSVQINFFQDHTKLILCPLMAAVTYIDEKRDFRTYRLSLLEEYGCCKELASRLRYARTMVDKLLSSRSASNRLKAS
Description: Detection solution PerkinElmer #TRF0218-M
Detection instrument PerkinElemer EnVision
a. Using the Echo machine, the compounds to be tested were diluted by 1:3 on a 384-well plate, and the highest concentration was 1 μM, with a total of 10 concentration points, and each concentration was tested in duplicate wells.
b. 5 μL/well of PLK1 kinase and peptide substrate mixture were added to the assay plate (containing controls).
d. The reaction was initiated by adding 5 μL/well of ATP solution;
e. The assay plate was centrifuged at 1000 rpm for about 15 seconds, a film was used to seal the assay plate which was incubated at 23° C. for a period of time;
f. A detection solution was added to all wells of the assay plate;
g. The assay plate was centrifuged at 1000 rpm for approximately 15 seconds, a film was used to seal the assay plate which was incubated at 23° C. for 60 min.
h. The assay plate was read on EnVision. The test results were analyzed using XLFIT5 software.

[2] = system: HCT116 cells; assay: Inhibitory activity on HCT116 cell proliferation (ATPlite); assay type: cell-based; settings: Homo sapiens
Description: Cell culture medium: RPMI1640+10% FBS (GBICO)
Cell culture plate: 96-well plate (Shanghai Jingan Biotechnology Co., Ltd.)
Detection kit: ATPlite 1step Luminescence (PerkinElmer)
Detection instrument: BioTek multifunctional microplate reader
2. Test method: HCT116 cells in the logarithmic growth phase were seeded into a white-wall clear-bottom 96-well plate at a density of 720 cells per well, and cultured overnight in a 37° C., 5% CO2 incubator. […] After adding the drug, culturing was continued for 72 h in a 37° C., 5% CO2 incubator.
GraphPad Prism 7.0 was used to process the data, the cell inhibition rate curve was obtained and IC50 was calculated.

[3] = Permeability and efflux transporter substrate evaluation in Caco-2 cells; assay type: in vitro ADME; design: Papp A→B at 120 min / Papp B→A at 120 min / efflux ratio at 120 min / Papp at 120 min: dose or concentration left out as unconfirmed; settings: human
Description: (§1) The cells were cultured in a carbon dioxide incubator for 21-28 days before being used for transport experiments. During this period, the culture medium was changed every four to five days.
(§2) This project uses Hank's balanced salt buffer (pH 7.40±0.05) containing 10 mM HEPES as the transport buffer. The culture medium was removed from the culture plate and the cells were washed twice with preheated transport buffer (approximately 75 μL and 40 mL of transport buffer for each apical well and basolateral receiver plate respectively). The donor solution and receiver solution were added to the corresponding cell plate wells (75 and 250 μL for each apical and basolateral well respectively), and the bidirectional transport experiment was started (apical to basolateral (A-B) and basolateral to apical (B-A)). The test concentration of the test substance was […], and two replicate wells were made for each dosing concentration. The test concentration of Digoxin was […], with dosing bidirectionally; the test concentrations of nadolol and metoprolol were both […], and they were dosed in one direction (A-B direction), and two replicate wells were made for each of the three control compounds.
(§3) The initial donor solution is the TO sample. After adding the sample, it was mixed with the transport buffer and stop solution in a certain proportion.
(§4) All samples were vortexed, and then centrifuged at 3220×g for 20 min at 20° C. A proper volume of supernatant was transferred to a sample assay plate, and the sample was stored at 2-8° C. if it was not analyzed immediately after the plate was sealed, and LC MS/MS method was used for analysis.
(§5) The Lucifer Yellow Rejection Assay was used to test the integrity of the Caco-2 cell layer.
(§6) The following formulas were used to calculate the apparent permeability coefficient (Papp, cm/s), efflux ratio (ER), and solution recovery (%) (% Solution Recovery).
(§7) [formula] [formula] [formula] • VR is the volume of the receiver side solution (side A is 0.075 mL, side B is 0.25 mL); Area is the relative surface area of the cell monolayer (0.0804 cm^2); Time is the incubation time (7200 s); C0 is the initial concentration (nM) of the test substance at the donor side or the peak area ratio of the control compound; VD is the volume of the donor side (side A is 0.075 mL, side B is 0.25 mL); CD and CR are the final concentration (nM) of the test substance at the donor side and the receiver side respectively or the peak area ratio of the control compound; • Lucifer yellow transmittance rate (% Lucifer Yellow) is calculated using the following formula:
(§8) [formula] • RFUApical and RFUBasolateral are the relative fluorescence intensity of lucifer yellow at the apical and basolateral sides respectively. VApical and VBasolateral are the sample loading volumes at the apical and basolateral sides respectively (0.075 and 0.25 mL respectively).

[4] = system: Caco-2 cells; assay: as above; assay type: in vitro ADME; design: Papp A→B at 120 min / Papp B→A at 120 min / efflux ratio at 120 min / Papp at 120 min: dose or concentration left out as unconfirmed; settings: Caco-2
Description: as §1, §2, §3, §4, §5, §6, §7, §8

[5] = Metabolic stability in mouse liver microsomes; assay type: in vitro ADME; settings: for CLint scaled at 1 µM / half-life at 1 µM: pH 7.4; for microsomal CLint at 1 µM: pH 7.4, read-out: CLint(mic)
Description: (§9) a. Preparation of phosphate buffer: The phosphate buffer powder was dissolved in 100 mL of pure water to prepare a phosphate buffer solution with a pH of 7.4 and a concentration of 100 mM, which was stored in a 4° C. refrigerator for later use.
(§10) b. All samples as well as the reference testosterone were dissolved in DMSO to obtain a 10 mM stock solution. The 10 mM stock solution was diluted to 100 μM with acetonitrile to obtain a working solution for later use.
(§11) c. Preparation of liver microsome working solution: Each of the mouse, rat and human liver microsome stock solutions (at concentration of 20 mg/mL) was taken and diluted to 0.56 mg/mL with 100 mM phosphate buffer solution to obtain the liver microsome working solution.
(§12) d. Preparation of solution: An appropriate amount of MgCl2 was weighed and used to prepare a MgCl2 solution at a concentration of 60 mM using 100 mM phosphate buffer solution. An appropriate amount of NADPH was weighed and used to prepare a NADPH solution at a concentration of 20 mM using 100 mM phosphate buffer solution. An equal volume of 60 mM MgCl2 solution was added to prepare an NADPH working solution containing 10 mM NADPH and 30 mM MgCl2. An acetonitrile solution containing 20 ng/mL tolbutamide was prepared as the stop solution.
(§13) e. Liver microsome incubation: 2 μL of each compound and the positive drug testosterone working solution were added to 178 μL of liver microsome working solution (0.56 mg/mL), mixed gently, and pre-incubated in a vibrating constant temperature water bath pot at 37° C. for 10 min. After adding 20 μL of NADPH working solution, the mixture was placed in a vibrating constant temperature water bath pot at 37° C. and timed incubation was started for 5, 10, 20, 30 and 60 min.
(§14) f. Stopping reaction: After the corresponding time of incubation, 400 μL of stop solution was added to stop the reaction, and then the sample was immediately shaken for 1 min. The sample was centrifuged at 13500 rpm for 10 min at 10° C. After centrifugation, the supernatant was removed, diluted with water according to the needs of each compound, and analyzed by LC-MS. For the 0-minute sample, the stop solution was first added and mixed evenly with the liver microsomes, and then the NADPH working solution was added. For the negative control sample, 20 μL of 30 mM MgCl2 solution was added instead of the NADPH working solution.
(§15) T1/2 and CLint(mic) were calculated by the following formula.
(§16) [formula] [formula] • CLint(mic)=0.693/T1/2/liver microsomal protein concentration during incubation (mg/mL) • CLint(ver)=CLint(mic)*liver microsomal protein (mg)/liver weight (g)*liver weight to body weight ratio
(§17) Liver microsomal protein (mg)/liver weight (g): the value is 45 in both animal and human species.
(§18) Liver weight to body weight ratio: the parameters for mice, rats and humans are 88, 40 and 20 g/kg respectively.

[6] = Metabolic stability in rat liver microsomes; assay type: in vitro ADME; settings: for CLint scaled at 1 µM / half-life at 1 µM: pH 7.4; for microsomal CLint at 1 µM: pH 7.4, read-out: CLint(mic)
Description: as §9, §10, §11, §12, §13, §14, §15, §16, §17, §18

[7] = Metabolic stability in human liver microsomes; assay type: in vitro ADME; settings: for CLint scaled at 1 µM / half-life at 1 µM: pH 7.4; for microsomal CLint at 1 µM: pH 7.4, read-out: CLint(mic)
Description: as §9, §10, §11, §12, §13, §14, §15, §16, §17, §18

[8] = PLK1 kinase, highest concentration 1 μM, 10 points, read-out: IC50
[9] = HCT-116, HCT116 cells, 72 h, read-out: IC50

CN1CCN(c2ccc(OC(F)(F)F)c(Nc3ncc4c(n3)-c3c(c(C(N)=O)nn3CCO)N(C)C4)c2)CC1 [Compound 5]
IC50 [1, 8]: 73.3 nM
Imax [1]: 76.81%
IC50 [2, 9]: 924 nM

CN1CCN(c2ccc(OC(F)(F)F)c(Nc3ncc4ncc5c(C(N)=O)nn(CCO)c5c4n3)c2)CC1 [Compound 6]
IC50 [2, 9]: 2720 nM

CCc1sc(C(N)=O)c2c1-c1nc(Nc3cc(N4CCN(C)CC4)ccc3OC(F)(F)F)ncc1CC2 [Compound 7]
IC50 [1, 8]: 0.79 nM
Imax [1]: 100.68%
efflux ratio at 120 min ([3]; Caco-2, pH 7.4): 1.97
Papp at 120 min ([3]; Caco-2, pH 7.4, read-out: Classification Permeability): < 0.5 ×10⁻⁶ cm/s
Papp A→B at 120 min ([3]; pH 7.4, Caco-2, apical to basolateral, 120 min, pH 7.40): 0.275 ×10⁻⁶ cm/s
Papp B→A at 120 min ([3]; pH 7.4, Caco-2, basolateral to apical, 120 min, pH 7.40): 0.542 ×10⁻⁶ cm/s
Classification Efflux transporter substrate [4]: Very unlikely or not (ERa < 2.00)
60 min remaining amount [5]: 2.92%
Clearance rate [5]: High
CLint scaled at 1 µM ([5]; mouse): 940 mL/min/kg
half-life at 1 µM ([5]; mouse): 5.84 min
microsomal CLint at 1 µM ([5]; mouse): 237 µL/min/mg
60 min remaining amount [6]: 2.06%
Clearance rate [6]: High
CLint scaled at 1 µM ([6]; rat): 1090 mL/min/kg
half-life at 1 µM ([6]; rat): 2.3 min
microsomal CLint at 1 µM ([6]; rat): 603 µL/min/mg
60 min remaining amount [7]: 14.1%
Clearance rate [7]: High
CLint scaled at 1 µM ([7]; human): 60.7 mL/min/kg
half-life at 1 µM ([7]; human): 20.6 min
microsomal CLint at 1 µM ([7]; human): 67.4 µL/min/mg

CN1CCN(c2ccc(OC(F)(F)F)c(Nc3ncc4c(n3)-c3c(c(C(=O)NO)nn3CCF)CC4)c2)CC1 [Compound 17]
IC50 [1, 8]: 0.814 nM
Imax [1]: 99.97%
60 min remaining amount [5]: 2.46%
Clearance rate [5]: High
CLint scaled at 1 µM ([5]; mouse): 470 mL/min/kg
half-life at 1 µM ([5]; mouse): 11.7 min
microsomal CLint at 1 µM ([5]; mouse): 119 µL/min/mg
60 min remaining amount [6]: 1.93%
Clearance rate [6]: High
CLint scaled at 1 µM ([6]; rat): 410 mL/min/kg
half-life at 1 µM ([6]; rat): 6.08 min
microsomal CLint at 1 µM ([6]; rat): 228 µL/min/mg
60 min remaining amount [7]: 26.0%
Clearance rate [7]: Medium
CLint scaled at 1 µM ([7]; human): 41.8 mL/min/kg
half-life at 1 µM ([7]; human): 29.9 min
microsomal CLint at 1 µM ([7]; human): 46.4 µL/min/mg

CN1CCN(c2ccc(OC(F)(F)F)c(Nc3ncc4ccc5c(C(=O)NO)nn(CCO)c5c4n3)c2)CC1 [Compound 19]
IC50 [1]: 1.06 nM
Imax [1]: 99.97%
IC50 ([2]; HCT-116, 72 h): 96 nM
60 min remaining amount [5]: 22.0%
Clearance rate [5]: Medium
CLint scaled at 1 µM [5]: 192 mL/min/kg
half-life at 1 µM [5]: 28.5 min
microsomal CLint at 1 µM [5]: 48.6 µL/min/mg
60 min remaining amount [6]: 11.9%
Clearance rate [6]: Medium
CLint scaled at 1 µM [6]: 127 mL/min/kg
half-life at 1 µM [6]: 19.6 min
microsomal CLint at 1 µM [6]: 70.8 µL/min/mg
60 min remaining amount [7]: 51.9%
Clearance rate [7]: Medium
CLint scaled at 1 µM [7]: 19.6 mL/min/kg
half-life at 1 µM [7]: 63.6 min
microsomal CLint at 1 µM [7]: 21.8 µL/min/mg

CN1CCN(c2ccc(OC(F)(F)F)c(Nc3ncc4ccc5c(C(N)=O)cn(CCO)c5c4n3)c2)CC1 [Compound 21]
IC50 [1]: 0.756 nM
Imax [1]: 99.15%

CN1CCN(c2ccc(OC(F)(F)F)c(Nc3ncc4ccc5c(C(N)=O)cn(C)c5c4n3)c2)CC1 [Compound 22]
IC50 [1, 8]: 1.51 nM
Imax [1]: 99.99%
